Tests used:
[1] = molecular target: 5-hydroxytryptamine receptor 4 (Cavia porcellus, UniProt O70528); format: cell membranes, Dunkin-Hartley, Striatum, Membrane; note: in other assays of this panel Not Active means under 50% inhibition at 10 µM
Substance-P receptor = Substance-P receptor (Homo sapiens, UniProt P25103); format: cell membranes, CHO, Membrane; details: cho; note: in other assays of this panel Not Active means under 50% inhibition at 10 µM
[2] = molecular target: Vascular endothelial growth factor receptor 1 (Homo sapiens, UniProt P17948); assay: biochemical; format: cell-based, HUVEC; details: huvec; note: in other assays of this panel Not Active means under 50% inhibition at 10 µM
Insulin receptor = Insulin receptor (Rattus norvegicus, UniProt P15127); format: cell membranes, Wistar, Liver, Membrane; note: in other assays of this panel Not Active means under 50% inhibition at 10 µM
[3] = DRUGMATRIX: Phosphodiesterase PDE4 enzyme inhibition (substrate: [3H]cAMP + cAMP); details: u-937; Not Active = under 50% inhibition at 10 µM
[4] = molecular target: Protein phosphatase 3 catalytic subunit alpha (Homo sapiens, UniProt Q08209); design: species or system Escherichia coli
Adenosine receptor A2a = Adenosine receptor A2a (Homo sapiens, UniProt P29274); assay: DRUGMATRIX: Adenosine A2A radioligand binding (ligand: […]); format: cell membranes, HEK293, Membrane; details: hek293; Not Active = under 50% inhibition at 10 µM
Sequence of Adenosine receptor A2a (P29274 whole entry): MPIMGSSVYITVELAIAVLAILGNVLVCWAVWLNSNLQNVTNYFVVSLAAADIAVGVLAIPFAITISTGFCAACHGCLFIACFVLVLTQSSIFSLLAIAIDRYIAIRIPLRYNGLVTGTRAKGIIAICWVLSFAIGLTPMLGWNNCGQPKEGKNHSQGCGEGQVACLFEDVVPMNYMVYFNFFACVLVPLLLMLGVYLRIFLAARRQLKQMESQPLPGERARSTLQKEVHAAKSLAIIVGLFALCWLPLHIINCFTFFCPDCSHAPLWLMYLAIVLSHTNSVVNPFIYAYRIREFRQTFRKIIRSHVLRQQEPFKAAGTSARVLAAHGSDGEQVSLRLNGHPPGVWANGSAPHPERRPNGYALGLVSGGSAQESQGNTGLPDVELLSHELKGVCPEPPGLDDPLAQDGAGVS

Sequence of Substance-P receptor (P25103 whole entry): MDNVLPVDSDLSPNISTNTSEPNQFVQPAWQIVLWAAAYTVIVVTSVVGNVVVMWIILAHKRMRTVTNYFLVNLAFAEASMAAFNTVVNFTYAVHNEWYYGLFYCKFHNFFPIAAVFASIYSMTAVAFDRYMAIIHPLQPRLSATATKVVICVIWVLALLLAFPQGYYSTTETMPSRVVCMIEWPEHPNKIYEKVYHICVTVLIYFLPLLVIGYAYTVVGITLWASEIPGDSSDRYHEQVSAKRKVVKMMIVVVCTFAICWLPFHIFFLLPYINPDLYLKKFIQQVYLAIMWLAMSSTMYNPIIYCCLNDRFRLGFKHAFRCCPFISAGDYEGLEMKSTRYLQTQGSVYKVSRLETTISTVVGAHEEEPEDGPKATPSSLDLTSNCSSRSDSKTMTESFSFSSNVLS
Sequence of Vascular endothelial growth factor receptor 1 (P17948 whole entry): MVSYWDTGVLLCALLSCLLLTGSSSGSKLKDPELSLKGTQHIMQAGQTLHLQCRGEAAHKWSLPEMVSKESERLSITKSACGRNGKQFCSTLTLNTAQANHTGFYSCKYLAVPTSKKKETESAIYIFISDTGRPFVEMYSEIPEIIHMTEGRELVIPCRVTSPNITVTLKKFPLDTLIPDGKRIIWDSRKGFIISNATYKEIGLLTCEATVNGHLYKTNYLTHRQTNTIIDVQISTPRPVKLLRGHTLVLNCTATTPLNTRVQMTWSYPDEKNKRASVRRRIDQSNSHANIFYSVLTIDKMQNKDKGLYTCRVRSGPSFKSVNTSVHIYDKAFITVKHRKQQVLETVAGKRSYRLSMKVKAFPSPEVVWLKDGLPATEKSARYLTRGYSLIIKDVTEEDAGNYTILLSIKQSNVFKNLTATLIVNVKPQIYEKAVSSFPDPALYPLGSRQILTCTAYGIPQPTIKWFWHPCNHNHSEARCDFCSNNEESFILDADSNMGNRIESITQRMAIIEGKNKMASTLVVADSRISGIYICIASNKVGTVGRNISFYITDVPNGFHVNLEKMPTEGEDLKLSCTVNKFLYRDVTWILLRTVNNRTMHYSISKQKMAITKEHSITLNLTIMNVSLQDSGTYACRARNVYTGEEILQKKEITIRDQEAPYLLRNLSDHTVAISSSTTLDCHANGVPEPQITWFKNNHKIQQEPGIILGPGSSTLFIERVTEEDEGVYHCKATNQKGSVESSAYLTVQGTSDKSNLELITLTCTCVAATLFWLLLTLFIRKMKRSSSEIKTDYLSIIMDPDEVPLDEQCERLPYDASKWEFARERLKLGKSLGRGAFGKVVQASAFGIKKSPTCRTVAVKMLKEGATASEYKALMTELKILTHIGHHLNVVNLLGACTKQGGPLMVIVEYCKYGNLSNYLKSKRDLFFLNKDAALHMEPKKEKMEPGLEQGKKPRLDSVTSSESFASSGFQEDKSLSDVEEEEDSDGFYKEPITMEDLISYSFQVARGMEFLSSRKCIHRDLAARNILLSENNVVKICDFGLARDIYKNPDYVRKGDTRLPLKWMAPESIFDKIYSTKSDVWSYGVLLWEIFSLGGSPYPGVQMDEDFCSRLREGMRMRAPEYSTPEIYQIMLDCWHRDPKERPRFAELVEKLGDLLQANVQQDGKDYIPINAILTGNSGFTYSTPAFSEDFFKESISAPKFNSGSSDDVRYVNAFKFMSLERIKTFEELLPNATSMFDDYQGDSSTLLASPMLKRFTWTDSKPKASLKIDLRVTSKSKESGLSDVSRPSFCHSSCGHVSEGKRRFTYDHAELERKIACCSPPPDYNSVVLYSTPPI
Sequence of Insulin receptor (P15127 27-759 limits assumed): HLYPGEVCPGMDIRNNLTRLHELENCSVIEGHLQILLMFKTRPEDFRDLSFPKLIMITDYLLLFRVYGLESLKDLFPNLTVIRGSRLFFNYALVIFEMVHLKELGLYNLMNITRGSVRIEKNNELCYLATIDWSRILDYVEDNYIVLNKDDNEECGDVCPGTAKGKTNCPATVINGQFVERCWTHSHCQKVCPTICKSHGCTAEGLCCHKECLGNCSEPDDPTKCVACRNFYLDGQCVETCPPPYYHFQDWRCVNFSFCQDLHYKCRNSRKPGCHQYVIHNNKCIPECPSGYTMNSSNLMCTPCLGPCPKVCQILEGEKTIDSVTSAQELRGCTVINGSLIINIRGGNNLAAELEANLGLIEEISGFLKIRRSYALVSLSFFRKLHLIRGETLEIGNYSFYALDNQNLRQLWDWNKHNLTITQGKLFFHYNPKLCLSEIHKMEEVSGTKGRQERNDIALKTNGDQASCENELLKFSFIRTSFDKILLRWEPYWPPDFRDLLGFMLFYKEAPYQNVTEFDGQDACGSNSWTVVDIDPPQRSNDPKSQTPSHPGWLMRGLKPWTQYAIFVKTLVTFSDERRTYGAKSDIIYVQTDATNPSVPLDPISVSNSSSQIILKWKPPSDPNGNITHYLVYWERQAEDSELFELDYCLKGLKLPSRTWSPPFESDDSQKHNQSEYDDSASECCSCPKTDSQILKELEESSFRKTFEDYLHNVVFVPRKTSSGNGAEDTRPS
Sequence of Insulin receptor (P15127 764-1383 limits assumed): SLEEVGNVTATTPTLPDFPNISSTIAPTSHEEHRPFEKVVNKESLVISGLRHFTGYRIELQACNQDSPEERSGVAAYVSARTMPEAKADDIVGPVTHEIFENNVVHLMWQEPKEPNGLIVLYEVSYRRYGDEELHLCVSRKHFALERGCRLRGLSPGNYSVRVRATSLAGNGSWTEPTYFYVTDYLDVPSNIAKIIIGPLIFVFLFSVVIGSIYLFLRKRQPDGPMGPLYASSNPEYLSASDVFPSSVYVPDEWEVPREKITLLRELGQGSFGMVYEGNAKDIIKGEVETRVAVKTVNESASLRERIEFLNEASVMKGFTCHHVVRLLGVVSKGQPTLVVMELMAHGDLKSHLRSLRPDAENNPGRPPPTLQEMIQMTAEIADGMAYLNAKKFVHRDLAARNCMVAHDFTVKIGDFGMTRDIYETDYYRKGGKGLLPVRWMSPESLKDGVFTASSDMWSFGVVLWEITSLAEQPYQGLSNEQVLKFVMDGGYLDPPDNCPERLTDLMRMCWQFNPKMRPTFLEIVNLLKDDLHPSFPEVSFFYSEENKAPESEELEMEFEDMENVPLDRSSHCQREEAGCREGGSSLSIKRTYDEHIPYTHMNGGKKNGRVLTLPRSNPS
Sequence of 5-hydroxytryptamine receptor 4 (O70528 whole entry): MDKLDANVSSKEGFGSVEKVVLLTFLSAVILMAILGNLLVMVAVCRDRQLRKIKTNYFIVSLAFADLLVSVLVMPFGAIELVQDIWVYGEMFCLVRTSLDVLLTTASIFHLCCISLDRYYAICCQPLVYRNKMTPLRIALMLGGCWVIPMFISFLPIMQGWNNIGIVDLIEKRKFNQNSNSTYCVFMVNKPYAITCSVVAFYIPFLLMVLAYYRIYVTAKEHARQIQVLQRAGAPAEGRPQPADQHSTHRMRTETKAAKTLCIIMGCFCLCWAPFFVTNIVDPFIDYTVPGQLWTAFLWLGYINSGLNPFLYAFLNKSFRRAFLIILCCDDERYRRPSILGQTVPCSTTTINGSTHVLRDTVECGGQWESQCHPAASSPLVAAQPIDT

CN(C/C=C/C#CC(C)(C)C)Cc1cccc2ccccc12 [TERBINAFINE]
Not Active: IC50 [1] | IC50 (Substance-P receptor) | IC50 [2] | IC50 (Insulin receptor) | IC50 [3] | Ki [3] | IC50 [4] | IC50 (Adenosine receptor A2a)

CCCCNc1ccc(C(=O)OCCN(C)C)cc1 [TETRACAINE]
Not Active: IC50 [1] | IC50 (Substance-P receptor) | IC50 [2] | IC50 (Insulin receptor) | IC50 [3] | Ki [3] | IC50 [4] | IC50 (Adenosine receptor A2a)

CS(=O)(=O)c1ccc([C@@H](O)[C@@H](CO)NC(=O)C(Cl)Cl)cc1 [THIAMPHENICOL]
Not Active: IC50 [1] | IC50 (Substance-P receptor) | IC50 [2] | IC50 (Insulin receptor) | IC50 [3] | Ki [3] | IC50 [4] | IC50 (Adenosine receptor A2a)

CCN(CC)CCNC(=O)c1cc(S(C)(=O)=O)ccc1OC [TIAPRIDE]
Not Active: IC50 [1] | IC50 (Substance-P receptor) | IC50 [2] | IC50 (Insulin receptor) | IC50 [3] | Ki [3] | IC50 [4] | IC50 (Adenosine receptor A2a)

Clc1ccccc1CN1CCc2sccc2C1 [TICLOPIDINE]
Not Active: IC50 [1] | IC50 (Substance-P receptor) | IC50 [2] | IC50 (Insulin receptor) | IC50 [3] | Ki [3] | IC50 [4] | IC50 (Adenosine receptor A2a)

NC1CCN(c2nc3c(cc2F)c(=O)c(C(=O)O)cn3-c2ccc(F)cc2F)C1 (configuration not stated) [TOSUFLOXACIN]
Not Active: IC50 [1] | IC50 (Substance-P receptor) | IC50 [2] | IC50 (Insulin receptor) | IC50 [3] | Ki [3] | IC50 [4] | IC50 (Adenosine receptor A2a)

O=C(Nc1ccc(Br)cc1)c1cc(Br)cc(Br)c1O [TRIBROMSALAN]
Not Active: IC50 [1] | IC50 (Substance-P receptor) | IC50 [2] | IC50 (Insulin receptor) | IC50 [3] | Ki [3] | IC50 [4] | IC50 (Adenosine receptor A2a)

CC(c1cc2ccccc2s1)N(O)C(N)=O (configuration not stated) [ZILEUTON]
Not Active: IC50 [1] | IC50 (Substance-P receptor) | IC50 [2] | IC50 (Insulin receptor) | IC50 [3] | Ki [3] | IC50 [4] | IC50 (Adenosine receptor A2a)

MANGANESE CHLORIDE ANHYDROUS
Not Active: IC50 [1] | Ki [1] | IC50 (Substance-P receptor) | Ki (Substance-P receptor) | IC50 [2] | Ki [2] | IC50 (Insulin receptor) | Ki (Insulin receptor) | IC50 [3] | Ki [3] | IC50 [4] | Ki [4] | IC50 (Adenosine receptor A2a) | Ki (Adenosine receptor A2a)

SODIUM ORTHOVANAD
Not Active: IC50 [1] | Ki [1] | IC50 (Substance-P receptor) | Ki (Substance-P receptor) | IC50 [2] | Ki [2] | IC50 (Insulin receptor) | Ki (Insulin receptor) | IC50 [3] | Ki [3] | IC50 [4] | Ki [4] | IC50 (Adenosine receptor A2a) | Ki (Adenosine receptor A2a)

From ChEMBL document CHEMBL1909046, “DrugMatrix in vitro pharmacology data”
